Target: T1, IRAK4 (Homo sapiens, UniProt Q9NWZ3)
T1 construct: C-terminal HiBiT-tagged Jurkat cells (polyclonal cell line or clone 8D5); endogenous in cells; host or cells: Jurkat cells (polyclonal cell line or clone 8D5), HiBiT-tagged
T1 sequence (Q9NWZ3 1-460): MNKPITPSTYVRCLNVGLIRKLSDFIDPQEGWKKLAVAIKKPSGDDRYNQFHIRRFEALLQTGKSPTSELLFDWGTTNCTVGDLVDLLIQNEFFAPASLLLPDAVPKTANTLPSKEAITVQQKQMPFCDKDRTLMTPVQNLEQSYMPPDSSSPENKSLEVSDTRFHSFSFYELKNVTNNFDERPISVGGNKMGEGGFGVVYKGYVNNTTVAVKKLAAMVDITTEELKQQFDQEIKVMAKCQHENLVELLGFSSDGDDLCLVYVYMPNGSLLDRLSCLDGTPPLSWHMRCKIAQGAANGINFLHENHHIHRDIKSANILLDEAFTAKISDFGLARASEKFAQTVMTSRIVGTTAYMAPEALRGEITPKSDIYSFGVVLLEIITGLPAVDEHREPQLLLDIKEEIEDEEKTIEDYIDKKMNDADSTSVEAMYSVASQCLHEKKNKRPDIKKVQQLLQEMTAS
Assay: IRAK4 Degradation HiBit Assay
Type: cell-based
Settings: C-terminal HiBiT-tagged Jurkat cells, 4 hrs incubation; for DC50: % IRAK4 remaining, four-parameter fit (IC50 used as DC50); for Dmax: from fit of % IRAK4 remaining, read-out: Dmax
Summary of the method: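 Degradation was quantified by luminescence after adding lytic detection reagent containing LgBiT to HiBiT-tagged Jurkat cells (polyclonal or clone 8D5). Cells were treated 4 h at 32 °C across 11 concentrations from 10 μM to 0.1 nM final. Four-parameter curve fitting of % IRAK4 remaining versus DMSO gave DC50 and Dmax.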

DC50 | Dmax | Structure (SMILES)
5 nM | 113% | C[C@H](C#N)Nc1cc(-c2ccc3cc(C#N)cnn23)ncc1-c1nnc(N2CCN(CC3CCN(c4ccc([C@@H]5CCC(=O)NC5=O)cn4)CC3)CC2)s1 (single isomer, unassigned) [Example 129]
38 nM | 85% | N#Cc1cnn2c(-c3cc(NC4CC4)c(-c4nnc(N5CCN(CC6CCN(c7ccc(C8CCC(=O)NC8=O)cn7)CC6)CC5)s4)cn3)ccc2c1 (racemic) [Example 67, rac-7-[4-(cyclopropylamino)-5-(5-{4-[(1-{5-[(3R)-2,6-dioxopiperidin-3-yl]pyridin-2-yl}piperidin-4-yl)methyl]piperazin-1-yl}-1,3,4-thiadiazol-2-yl)pyridin-2-yl]pyrrolo[1,2-b]pyridazine-3-carbonitrile]
65 nM | 111% | N#Cc1cnn2c(-c3cc(NC4CCOCC4)c(-c4nnc(N5CCN(C[C@H]6CC[C@H](Oc7ccc([C@@H]8CCC(=O)NC8=O)cn7)CC6)CC5)s4)cn3)ccc2c1 (racemic) [Example 107, 7-{4-[(oxan-4-yl)amino]-5-[5-(4-{[(1r,4r)-4-({5-[(3RS)-2,6-dioxopiperidin-3-yl]pyridin-2-yl}oxy)cyclohexyl]methyl}piperazin-1-yl)-1,3,4-thiadiazol-2-yl]pyridin-2-yl}pyrrolo[1,2-b]pyridazine-3-carbonitrile]
104 nM | 88% | N#Cc1cnn2c(-c3cc(N[C@@H]4CCOC4)c(-c4nnc(N5CCN(CC6CCN(c7ccc([C@H]8CCC(=O)NC8=O)cn7)CC6)CC5)s4)cn3)ccc2c1 (single isomer, unassigned) [Example 137]
61 nM | 109% | CNc1cc(-c2ccc3cc(C#N)cnn23)ncc1-c1nnc(N2CC3(CCN(CC4CCN(c5ccc(C6CCC(=O)NC6=O)cn5)CC4)CC3)C2)s1 (racemic) [Example 55, rac-7-[5-(5-{7-[(1-{5-[(3R)-2,6-dioxopiperidin-3-yl]pyridin-2-yl}piperidin-4-yl)methyl]-2,7-diazaspiro[3.5]nonan-2-yl}-1,3,4-thiadiazol-2-yl)-4-(methylamino)pyridin-2-yl]pyrrolo[1,2-b]pyridazine-3-carbonitrile]
10 nM | 54% | CNc1cc(-c2ccc3cc(C#N)cnn23)ncc1-c1nnc(C2CCC(C(=O)N3CCN(c4ccc([C@@H]5CCC(=O)NC5=O)cc4)CC3)CC2)s1 (mixture of isomers) [Example 32, 7-[4-(methylamino)-5-{5-[(1rs&,4rs&)-4-(4-{4-[(3RS)-2,6-dioxopiperidin-3-yl]phenyl}piperazine-1-carbonyl)cyclohexyl]-1,3,4-thiadiazol-2-yl}pyridin-2-yl]pyrrolo[1,2-b]pyridazine-3-carbonitrile]
27 nM | 105% | CCN(C(=O)C1CCN(c2ccc([C@@H]3CCC(=O)NC3=O)cn2)CC1)[C@H]1CC[C@H](c2nnc(-c3cnc(-c4ccc5cc(C#N)cnn45)cc3NC)s2)CC1 (racemic) [Example 35, 1-{5-[(3RS)-2,6-dioxopiperidin-3-yl]pyridin-2-yl}-N-ethyl-N-[(1r,4r)-4-[5-(6-{3-cyanopyrrolo[1,2-b]pyridazin-7-yl}-4-(methylamino)pyridin-3-yl)-1,3,4-thiadiazol-2-yl]cyclohexyl]piperidine-4-carboxamide]
123 nM | 76% | CC(C)Nc1cc(-c2ccc3cc(C#N)cnn23)ncc1-c1nnc(N2CCN(CC3CCN(c4ccc(C5CCC(=O)NC5=O)cc4)CC3)CC2)s1 (racemic) [Example 64, rac-7-[5-(5-{4-[(1-{4-[(3R)-2,6-dioxopiperidin-3-yl]phenyl}piperidin-4-yl)methyl]piperazin-1-yl}-1,3,4-thiadiazol-2-yl)-4-[(propan-2-yl)amino]pyridin-2-yl]pyrrolo[1,2-b]pyridazine-3-carbonitrile]
45 nM | 101% | N#Cc1cnn2c(-c3cc(NC4CCOCC4)c(-c4nnc(N5CCC6(CCN(CC7CCN(c8ccc(C9CCC(=O)NC9=O)cn8)CC7)CC6)CC5)s4)cn3)ccc2c1 (racemic) [Example 33, rac-7-[5-(5-{9-[(1-{5-[(3R)-2,6-dioxopiperidin-3-yl]pyridin-2-yl}piperidin-4-yl)methyl]-3,9-diazaspiro[5.5]undecan-3-yl}-1,3,4-thiadiazol-2-yl)-4-[(oxan-4-yl)amino]pyridin-2-yl]pyrrolo[1,2-b]pyridazine-3-carbonitrile]

Continued, compound first:

Structure (SMILES) | DC50 | Dmax
N#Cc1cnn2c(-c3cc(NC4CCOCC4)c(-c4nnc(N5CCN(C(=O)C6CCN(c7cc(C8CCC(=O)NC8=O)ccn7)CC6)CC5)s4)cn3)ccc2c1 (racemic) [Example 16, rac-7-(5-{5-[4-(1-{4-[(3R)-2,6-dioxopiperidin-3-yl]pyridin-2-yl}piperidine-4-carbonyl)piperazin-1-yl]-1,3,4-thiadiazol-2-yl}-4-[(oxan-4-yl)amino]pyridin-2-yl)pyrrolo[1,2-b]pyridazine-3-carbonitrile] | 26 nM | 62%
N#Cc1cnn2c(-c3cc(NC4CCOCC4)c(-c4nnc(N5CCN(CC6CCN(c7ccc([C@H]8CCC(=O)NC8=O)cn7)CC6)CC5)s4)cn3)ccc2c1 (single isomer, unassigned) [Example 30] | 40 nM | 104%
N#Cc1cnn2c(-c3cc(NC4CCOCC4)c(-c4nnc(N5CC6CCC(C5)N6CC5CCN(c6ccc(N7CCC(=O)NC7=O)cc6)CC5)s4)cn3)ccc2c1 [Example 84, 7-(5-{5-[8-({1-[4-(2,4-dioxo-1,3-diazinan-1-yl)phenyl]piperidin-4-yl}methyl)-3,8-diazabicyclo[3.2.1]octan-3-yl]-1,3,4-thiadiazol-2-yl}-4-[(oxan-4-yl)amino]pyridin-2-yl)pyrrolo[1,2-b]pyridazine-3-carbonitrile] | 24 nM | 77%
N#Cc1cnn2c(-c3cc(NC4CCOCC4)c(-c4nnc(C56CCC(CN7CCC(Oc8ccc(C9CCC(=O)NC9=O)cn8)CC7)(CC5)CC6)s4)cn3)ccc2c1 (racemic) [Example 24, rac-7-{5-[5-(4-{[4-({5-[(3R)-2,6-dioxopiperidin-3-yl]pyridin-2-yl}oxy)piperidin-1-yl]methyl}bicyclo[2.2.2]octan-1-yl)-1,3,4-thiadiazol-2-yl]-4-[(oxan-4-yl)amino]pyridin-2-yl}pyrrolo[1,2-b]pyridazine-3-carbonitrile] | 77 nM | 83%
N#Cc1cnn2c(-c3cc(NC4CCOCC4)c(-c4nnc(C56CCC(C(=O)N7CCN(c8ccc(C9CCC(=O)NC9=O)cn8)CC7)(CC5)CC6)s4)cn3)ccc2c1 (racemic) [Example 22, rac-7-(5-{5-[4-(4-{5-[(3R)-2,6-dioxopiperidin-3-yl]pyridin-2-yl}piperazine-1-carbonyl)bicyclo[2.2.2]octan-1-yl]-1,3,4-thiadiazol-2-yl}-4-[(oxan-4-yl)amino]pyridin-2-yl)pyrrolo[1,2-b]pyridazine-3-carbonitrile] | 23 nM | 84%
CC(C)Nc1cc(-c2ccc3cc(C#N)cnn23)ncc1-c1nnc(N2CCN(C(=O)CC3CCN(c4ccc(C5CCC(=O)NC5=O)cn4)CC3)CC2)s1 (racemic) [Example 19, rac-7-[5-(5-{4-[2-(1-{5-[(3R)-2,6-dioxopiperidin-3-yl]pyridin-2-yl}piperidin-4-yl)acetyl]piperazin-1-yl}-1,3,4-thiadiazol-2-yl)-4-[(propan-2-yl)amino]pyridin-2-yl]pyrrolo[1,2-b]pyridazine-3-carbonitrile] | 29 nM | 103%
N#Cc1cnn2c(-c3cc(NC4CCOCC4)c(-c4nnc(N5CCN(C(=O)CC6CCN(c7ccc(C8CCC(=O)NC8=O)cn7)CC6)CC5)s4)cn3)ccc2c1 (racemic) [Example 18, rac-7-[5-(5-{4-[2-(1-{5-[(3R)-2,6-dioxopiperidin-3-yl]pyridin-2-yl}piperidin-4-yl)acetyl]piperazin-1-yl}-1,3,4-thiadiazol-2-yl)-4-[(oxan-4-yl)amino]pyridin-2-yl]pyrrolo[1,2-b]pyridazine-3-carbonitrile] | 12 nM | 103%
N#Cc1cnn2c(-c3cc(NC4CC4)c(-c4nnc(N5CC6CCC(C5)N6CC5CCN(c6ccc([C@H]7CCC(=O)NC7=O)cn6)CC5)s4)cn3)ccc2c1 (racemic) [Example 95, rac-7-[4-(cyclopropylamino)-5-(5-{8-[(1-{5-[(3R)-2,6-dioxopiperidin-3-yl]pyridin-2-yl}piperidin-4-yl)methyl]-3,8-diazabicyclo[3.2.1]octan-3-yl}-1,3,4-thiadiazol-2-yl)pyridin-2-yl]pyrrolo[1,2-b]pyridazine-3-carbonitrile] | 27 nM | 108%
N#Cc1cnn2c(-c3cc(NC4CCOCC4)c(-c4nnc(N5CC6CCC(C5)N6C[C@H]5CC[C@H](Oc6ccc([C@@H]7CCC(=O)NC7=O)cn6)CC5)s4)cn3)ccc2c1 (racemic) [Example 108, 7-{4-[(oxan-4-yl)amino]-5-[5-(8-{[(1r,4r)-4-({5-[(3RS)-2,6-dioxopiperidin-3-yl]pyridin-2-yl}oxy)cyclohexyl]methyl}-3,8-diazabicyclo[3.2.1]octan-3-yl)-1,3,4-thiadiazol-2-yl]pyridin-2-yl}pyrrolo[1,2-b]pyridazine-3-carbonitrile] | 40 nM | 87%
